Source: Sander's compilation of Henry's law constants (doi:10.1021/es00081a021)

assay: Henry solubility constant Hcp at 298.15 K (mol/(m3 Pa)); settings: reference: Brunner et al. (1990)

In order of falling “Henry solubility constant Hcp” value:
1. Clc1cc(-c2cc(Cl)c(Cl)c(Cl)c2Cl)c(Cl)c(Cl)c1Cl [2,2',3,3',4,4',5,5'-octachlorobiphenyl]  0.99
2. Clc1cc(-c2c(Cl)cc(Cl)c(Cl)c2Cl)c(Cl)c(Cl)c1Cl [2,2',3,3',4,4',5,6'-octachlorobiphenyl]  0.99
3. Clc1cc(-c2c(Cl)c(Cl)cc(Cl)c2Cl)c(Cl)c(Cl)c1Cl [2,2',3,3',4,5,5',6'-octachlorobiphenyl]  0.99
4. Clc1cc(-c2c(Cl)ccc(Cl)c2Cl)c(Cl)c(Cl)c1Cl [2,2',3,3',4,5,6'-heptachlorobiphenyl]  0.7
5. Clc1cccc(-c2c(Cl)c(Cl)c(Cl)c(Cl)c2Cl)c1Cl [2,2',3,3',4,5,6-heptachlorobiphenyl]  0.7
6. Clc1cc(Cl)c(-c2c(Cl)c(Cl)cc(Cl)c2Cl)c(Cl)c1Cl [2,2',3,3',4,5',6,6'-octachlorobiphenyl]  0.58
7. Clc1cc(Cl)c(Cl)c(-c2c(Cl)c(Cl)cc(Cl)c2Cl)c1Cl [2,2',3,3',5,5',6,6'-octachlorobiphenyl]  0.55
8. Clc1cc(Cl)cc(-c2cc(Cl)c(Cl)c(Cl)c2Cl)c1 [2,3,3',4,5,5'-hexachlorobiphenyl]  0.49
9. Clc1cccc(-c2c(Cl)c(Cl)c(Cl)c(Cl)c2Cl)c1 [2,3,3',4,5,6-hexachlorobiphenyl]  0.49
10. Clc1cc(Cl)c(-c2ccc(Cl)c(Cl)c2Cl)cc1Cl [2,2',3,4,4',5'-hexachlorobiphenyl]  0.47
11. Clc1ccc(Cl)c(-c2cc(Cl)c(Cl)c(Cl)c2Cl)c1 [2,2',3,4,5,5'-hexachlorobiphenyl]  0.43
12. Clc1cc(Cl)c(-c2cc(Cl)c(Cl)cc2Cl)cc1Cl [2,2',4,4',5,5'-hexachlorobiphenyl]  0.43
13. Clc1ccc(Cl)c(-c2c(Cl)c(Cl)cc(Cl)c2Cl)c1Cl [2,2',3,3',5,6,6'-heptachlorobiphenyl]  0.41
14. Clc1cc(Cl)c(Cl)c(-c2cc(Cl)c(Cl)cc2Cl)c1 [2,2',3,4',5,5'-hexachlorobiphenyl]  0.39
15. Clc1cccc(-c2cc(Cl)c(Cl)c(Cl)c2Cl)c1Cl [2,2',3,3',4,5-hexachlorobiphenyl]  0.34
16. Clc1cc(Cl)cc(-c2c(Cl)c(Cl)cc(Cl)c2Cl)c1 [2,3,3',5,5',6-hexachlorobiphenyl]  0.34
17. Clc1cc(Cl)c(Cl)c(-c2ccc(Cl)c(Cl)c2Cl)c1 [2,2',3,3',4,5'-hexachlorobiphenyl]  0.27
18. Clc1ccc(-c2c(Cl)c(Cl)cc(Cl)c2Cl)c(Cl)c1 [2,2',3,4',5,6-hexachlorobiphenyl]  0.19
19. Clc1cc(Cl)c(Cl)c(-c2c(Cl)ccc(Cl)c2Cl)c1 [2,2',3,3',5,6'-hexachlorobiphenyl]  0.18
20. Clc1ccc(-c2ccc(Cl)c(Cl)c2Cl)c(Cl)c1 [2,2',3,4,4'-pentachlorobiphenyl]  0.15
21. Clc1cc(Cl)c(-c2cccc(Cl)c2Cl)cc1Cl [2,2',3,4',5'-pentachlorobiphenyl]  0.13
22. Clc1ccc(-c2cc(Cl)c(Cl)cc2Cl)c(Cl)c1 [2,2',4,4',5-pentachlorobiphenyl]  0.13
23. Clc1ccc(Cl)c(-c2c(Cl)ccc(Cl)c2Cl)c1Cl [2,2',3,3',6,6'-hexachlorobiphenyl]  0.11
24. Clc1cc(Cl)c(-c2c(Cl)cccc2Cl)cc1Cl [2,2',4,5,6'-pentachlorobiphenyl]  0.11
25. Clc1cccc(-c2cccc(Cl)c2Cl)c1Cl [2,2',3,3'-tetrachlorobiphenyl]  0.099
26. Clc1ccc(Cl)c(-c2ccc(Cl)c(Cl)c2)c1 [2,3',4',5-tetrachlorobiphenyl]  0.099
27. Clc1cccc(-c2cc(Cl)c(Cl)cc2Cl)c1 [2,3',4,5-tetrachlorobiphenyl]  0.099
28. Clc1ccc(-c2ccc(Cl)c(Cl)c2)cc1 [3,4,4'-trichlorobiphenyl]  0.099
29. Clc1ccc(-c2ccccc2)cc1Cl [3,4-dichlorobiphenyl]  0.07
30. Clc1cccc(-c2cc(Cl)cc(Cl)c2)c1 [3,3',5-trichlorobiphenyl]  0.058
31. Clc1ccc(-c2cc(Cl)ccc2Cl)cc1 [2,4',5-trichlorobiphenyl]  0.052
32. Clc1ccc(Cl)c(-c2cc(Cl)ccc2Cl)c1 [2,2',5,5'-tetrachlorobiphenyl]  0.049
33. Clc1cccc(Cl)c1-c1c(Cl)cccc1Cl [2,2',6,6'-tetrachlorobiphenyl]  0.049
34. Clc1cc(Cl)c(-c2ccccc2)c(Cl)c1Cl [2,3,4,6-tetrachlorobiphenyl]  0.047
35. Clc1ccc(Cl)c(-c2ccccc2)c1Cl [2,3,6-trichlorobiphenyl]  0.045
36. Clc1ccccc1-c1c(Cl)cccc1Cl [2,2',6-trichlorobiphenyl]  0.043
37. Clc1ccc(Cl)c(-c2ccccc2Cl)c1 [2,2',5-trichlorobiphenyl]  0.039
38. Clc1cccc(-c2ccccc2Cl)c1 [2,3'-dichlorobiphenyl]  0.039
